Patent publication US20260068882A1, “ARTHROPOD CONTROLLING COMPOSITION” (Firmenich SA, priority 2019, published 2026)
Like-named read-outs stand apart in the source and are kept apart here.

Columns and labels:
Aedes aegypti = assay: In vitro Warm Body assay, mosquitoes landing on treated warm body; type: in vivo
In short: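 Adapted Warm Body assay with host-seeking, non-blood-fed, sugar-fed A. aegypti Rockefeller females aged 5–10 days (10–12 days in one set); cages held 30 (or 25) females at 150 lux. Landings were counted automatically. Doses in ethanol were 0.0016%, 0.04% and 1% in triplicate, or a single replicate across 0.0016–1%.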

Ixodes ricinus = assay: In vitro Warm Plate Assay for ticks; type: in vivo
In short: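 Repellency against last-stage Ixodes ricinus nymphs in an in vitro warm plate assay, compounds diluted in ethanol at 0.4 and 10 mg/mL, 0.0016% to 1%, or 20% (w/w). Ticks walking down or falling from the treated plate scored as affected, walking up as unaffected; groups of 12 ticks, n=2-5.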

In the case of `c1ccc2c(c1)CC1COCOC21` (stereo not shown) [ingredient #3, 4,4A,5,9B-tetrahydro-indeno[1,2-D]-1,3-dioxin], the reduction of landing (Aedes aegypti; 0.0016% (Table 7)) is reported as 5%, the “number of mosquitoes landed on the Warm Body” value (shortened to “number of mosquitoes landed”) (Aedes aegypti; 0.0016% in ethanol (Table 6)) is reported as 76 and the “number of mosquitoes landed” value (Aedes aegypti; 0.0016% in ethanol (Table 7, one replicate)) is reported as 76. The “number of mosquitoes landed” value (Aedes aegypti; 0.008% in ethanol (Table 7, one replicate)) was 61, the “number of mosquitoes landed” value (Aedes aegypti; 0.0119% in ethanol (Table 7, one replicate)) was 42 and the “number of mosquitoes landed” value (Aedes aegypti; 0.04% in ethanol (Table 6)) was 6. For the same compound, the “number of mosquitoes landed” value (Aedes aegypti; 0.04% in ethanol (Table 7, one replicate)) was 6, the “number of mosquitoes landed” value (Aedes aegypti; 0.0598% in ethanol (Table 7, one replicate)) was 4 and the “number of mosquitoes landed” value (Aedes aegypti; 0.2% in ethanol (Table 7, one replicate)) was 0. The “number of mosquitoes landed” value (Aedes aegypti; 0.447% in ethanol (Table 7, one replicate)) was 2, the “number of mosquitoes landed” value (Aedes aegypti; 1% in ethanol (Table 6)) was 2 and the “number of mosquitoes landed” value (Aedes aegypti; 1% in ethanol (Table 7, one replicate)) was 2. The “percentage of ticks being affected” value (Ixodes ricinus; 0.00032% (Table 9)) was 0%, the “percentage of ticks being affected” value (Ixodes ricinus; 0.00071% (Table 9)) was 8% and the “percentage of ticks being affected” value (Ixodes ricinus; 0.0016% (Table 9)) was 0%. For the same compound, the “percentage of ticks being affected” value (Ixodes ricinus; 0.00357% (Table 9)) was 0%, the “percentage of ticks being affected” value (Ixodes ricinus; 0.0053% (Table 9)) was 0% and the “percentage of ticks being affected” value (Ixodes ricinus; 0.008% (Table 9)) was 0%. For the same compound, the “percentage of ticks being affected” value (Ixodes ricinus; 0.0119% (Table 9)) was 0%, the “percentage of ticks being affected” value (Ixodes ricinus; 0.0178% (Table 9)) was 0% and the “percentage of ticks being affected” value (Ixodes ricinus; 0.0267% (Table 9)) was 0%. The “percentage of ticks being affected” value (Ixodes ricinus; 0.04% (Table 9)) was 13%, the “percentage of ticks being affected” value (Ixodes ricinus; 0.0598% (Table 9)) was 6% and the “percentage of ticks being affected” value (Ixodes ricinus; 0.089% (Table 9)) was 0%. The “percentage of ticks being affected” value (Ixodes ricinus; 0.2% (Table 9)) was 24%, the “percentage of ticks being affected” value (Ixodes ricinus; 0.447% (Table 9)) was 67% and the “percentage of ticks being affected” value (Ixodes ricinus; 1% (Table 9)) was 92%. The “percentage of ticks affected overtime” value (Ixodes ricinus; 20% (w/w) in ethanol, 0.25 h post-application) was 100%, the “percentage of ticks affected overtime” value (Ixodes ricinus; 20% (w/w) in ethanol, 0.5 h post-application) was 92% and the “percentage of ticks affected overtime” value (Ixodes ricinus; 20% (w/w) in ethanol, 1 h post-application) was 8%. For the same compound, the “percentage of ticks affected overtime” value (Ixodes ricinus; 20% (w/w) in ethanol, 2 h post-application) was 17%, the “percentage of ticks affected overtime” value (Ixodes ricinus; 20% (w/w) in ethanol, 4 h post-application) was 15% and the “percentage of ticks affected overtime” value (Ixodes ricinus; 20% (w/w) in ethanol, 6 h post-application) was 33%. The “ticks' repellency overtime (in words)” value (Ixodes ricinus; 20% (w/w) in ethanol, Table 14) was “very effective at the first time points”, the pest or weed control at 0.0016 % (Ixodes ricinus; Ixodes ricinus, 0.0016% in ethanol (Table 12), read-out: percentage of ticks affected on the Warm Plate) was 0% and the pest or weed control at 0.0053 % (Ixodes ricinus; Ixodes ricinus, 0.0053% in ethanol (Table 12), read-out: percentage of ticks affected on the Warm Plate) was 0%. The pest or weed control at 0.008 % (Ixodes ricinus; Ixodes ricinus, 0.008% in ethanol (Table 12), read-out: percentage of ticks affected on the Warm Plate) was 0%, the pest or weed control at 0.0119 % (Ixodes ricinus; Ixodes ricinus, 0.0119% in ethanol (Table 12), read-out: percentage of ticks affected on the Warm Plate) was 0% and the pest or weed control at 0.0178 % (Ixodes ricinus; Ixodes ricinus, 0.0178% in ethanol (Table 12), read-out: percentage of ticks affected on the Warm Plate) was 0%. The pest or weed control at 0.0267 % (Ixodes ricinus; Ixodes ricinus, 0.0267% in ethanol (Table 12), read-out: percentage of ticks affected on the Warm Plate) was 0%, the pest or weed control at 0.04 % (Ixodes ricinus; Ixodes ricinus, 0.04% in ethanol (Table 12), read-out: percentage of ticks affected on the Warm Plate) was 13% and the pest or weed control at 0.0598 % (Ixodes ricinus; Ixodes ricinus, 0.0598% in ethanol (Table 12), read-out: percentage of ticks affected on the Warm Plate) was 6%. For the same compound, the pest or weed control at 0.089 % (Ixodes ricinus; Ixodes ricinus, 0.089% in ethanol (Table 12), read-out: percentage of ticks affected on the Warm Plate) was 0%, the pest or weed control at 0.2 % (Ixodes ricinus; Ixodes ricinus, 0.2% in ethanol (Table 12), read-out: percentage of ticks affected on the Warm Plate) was 24% and the pest or weed control at 0.447 % (Ixodes ricinus; Ixodes ricinus, 0.447% in ethanol (Table 12), read-out: percentage of ticks affected on the Warm Plate) was 67%. It also gave a pest or weed control at 1 % (Ixodes ricinus; Ixodes ricinus, 1% in ethanol (Table 12), read-out: percentage of ticks affected on the Warm Plate) of 92% and a ticks affected (Ixodes ricinus; dose of 0.598%) of 6%.

For `COCC1(C)Cc2ccc(C)cc2C1` (stereo not shown) [(2,5-dimethyl-2,3-dihydro-1H-inden-2-yl)methyl methyl ether], the “decrease of the number of landing” value (Aedes aegypti; 1% in ethanol (FIG. 9)) was 86%, the pest or weed control at 0.0016 % (Aedes aegypti; Aedes aegypti, read-out: decrease of landings) was 4 to 29% and the pest or weed control at 0.0016 % (Ixodes ricinus; Ixodes ricinus, 0.0016% (Table 11), read-out: percentage of ticks affected on the Warm Plate) was 0%. The pest or weed control at 0.04 % (Ixodes ricinus; Ixodes ricinus, 0.04% (Table 11), read-out: percentage of ticks affected on the Warm Plate) was 17% and the pest or weed control at 1 % (Ixodes ricinus; Ixodes ricinus, 1% (Table 11), read-out: percentage of ticks affected on the Warm Plate) was 79%.
